Patent US11547681B2, “N-acylethanolamide derivatives and uses thereof” (ELIEM THERAPEUTICS, INC., priority 2016, dated 2023)

Assays:
[1] = Plasma stability (37° C., pH 7.4), mouse; assay type: in vitro ADME, CD-1 mouse; details: for % Remaining of Initial (n = 1): Mouse plasma; for half-life at 1 μM: male, CD-1, mouse, plasma; for % Remaining of Initial: mouse plasma, n = 1
Experimental: (§1) Studies were carried out in mixed-gender human plasma (Lot #GLP530-5), male Sprague-Dawley rat (Lot #RAT297944, RAT313140), male CD-1 mouse (Lot #MSE237700), and male Beagle dog (Lot #BGL87670, BGL82614), collected on sodium heparin. Plasma was adjusted to pH 7.4 prior to initiating the experiments. DMSO stocks were first prepared for the test articles. Aliquots of the DMSO solutions were dosed into 700 μL of plasma, which had been pre-warmed to 37° C., at a final test article concentration of 1 μM. […] Samples were stored at 4° C. until the end of the experiment. After the final time point was sampled, the plate was mixed and then centrifuged at 3,000 rpm for 10 minutes. Calibration standards were prepared in matched matrix. […] Analytical conditions are outlined in Appendix 8-1.
as §1, with “#AS1650-2),” for “#GLP530-5),”, “#RAT297944),” for “#RAT297944, RAT313140),”, “CD-I” for “CD-1”, “#BGL91384),” for “#BGL87670, BGL82614),”, “10-1.” for “8-1.”
Studies were carried out in mixed-gender human plasma (Lot #AS1650-2), male Sprague-Dawley rat (Lot #RAT297944), male CD-1 mouse (Lot #MSE237700), and male Beagle dog (Lot #BGL91384), collected on sodium heparin. Plasma was adjusted to pH 7.4 prior to initiating the experiments. DMSO stocks were first prepared for test articles. […] Samples were stored at 4° C. until the end of experiment. After the final time point was sampled, the plate was mixed and then centrifuged at 3,000 rpm for 10 minutes. Calibration standards were prepared in matched matrix. […] Analytical conditions are outlined in Appendix 13-1.
Studies were carried out in mixed-gender human plasma (Lot #AS 1650-2), male Sprague-Dawley rat (Lot #RAT320835), male CD-1 mouse (Lot #MSE260693), and 6 male Beagle dog (Lot #BGL91384), on sodium heparin. Plasma was adjusted to pH 7.4 prior to initiating the experiments. DMSO stocks were first prepared for the test articles. Aliquots of the DMSO solutions were dosed into 700 μL of plasma, which had been pre-warmed to 37° C., at a final test article concentration of 1 μM. […] Samples were stored at 4° C. until the end of the experiment. After the final time point was sampled, the plate was mixed and then centrifuged at 3,000 rpm for 10 minutes. Calibration standards were prepared in matched matrix. […] Analytical conditions are outlined in Appendix 17-1.

in vitro = details: male, CD-1, mouse; for Concentration, analyte PEA / % Remaining of Initial (n = 1) / Measured concentration of PEA (analyte) / % Remaining of Initial: 1 μM; for microsomal CLint at 1 μM: s9, CLint; for half-life at 1 μM: s9, Half-life
Summary of the method: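 Half-lives are based on fitting compound loss over 0, 10, 20, 30 and 60 min to a single exponential, with amounts expressed against the zero-time sample. Reactions hold 1 μM substrate in S9 at 37 °C, start on cofactor addition, and are stopped with cold acetonitrile containing formic acid.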

CCCCC/C=C\C/C=C\CCCCCCCC(=O)OCC(COC(=O)CCC(=O)OCCNC(=O)CCCCCCCCCCCCCCC)OC(=O)CCCCCCC/C=C\C/C=C\CCCCC (stereo not drawn) [Compound I-13]
% Remaining of Initial (n = 1) ([1]; 0 min, 1 μM): 100%
% Remaining of Initial (n = 1) ([1]; 15 min, 1 μM): 82%
% Remaining of Initial (n = 1) ([1]; 30 min, 1 μM): 71%
% Remaining of Initial (n = 1) ([1]; 60 min, 1 μM): 49%
% Remaining of Initial (n = 1) ([1]; 120 min, 1 μM): 35%
half-life at 1 μM ([1]; pH 7.4, Mouse plasma, 1 μM, read-out: Half-life): 1.17 h
Concentration, analyte PEA (in vitro; 0 min): 12 nM
Concentration, analyte PEA (in vitro; 10 min): 50 nM
Concentration, analyte PEA (in vitro; 20 min): 73 nM
Concentration, analyte PEA (in vitro; 30 min): 96 nM
Concentration, analyte PEA (in vitro; 60 min): 89 nM
% Remaining of Initial (n = 1) (in vitro; s9, 0 h): 100%
% Remaining of Initial (n = 1) (in vitro; s9, 10 min): 97%
% Remaining of Initial (n = 1) (in vitro; s9, 20 min): 71%
% Remaining of Initial (n = 1) (in vitro; s9, 0.5 h): 81%
% Remaining of Initial (n = 1) (in vitro; s9, 1 h): 57%
microsomal CLint at 1 μM (in vitro): < 11.6 µL/min/mg
microsomal CLint at 1 μM (in vitro; calculated (in parentheses)): 9.51 µL/min/mg
half-life at 1 μM (in vitro): > 1 h
half-life at 1 μM (in vitro; calculated (in parentheses)): 1.22 h

CCCCCCCCCCCCCCCC(=O)NCCOC(=O)CCC(=O)OC(COC(=O)CCC)COC(=O)CCC [Compound I-16]
half-life at 1 μM ([1]; pH 7.4, mouse plasma, read-out: Half-life): < 0.25 h
half-life at 1 μM ([1]; pH 7.4, mouse plasma, read-out: Half-life, calculated value in parentheses): 0.0783 h
% Remaining of Initial ([1]; 0 min, 1 μM): 100%
% Remaining of Initial ([1]; 15 min, 1 μM): 10%
% Remaining of Initial ([1]; 30 min, 1 μM): 4.0%
% Remaining of Initial ([1]; 60 min, 1 μM): 1.1%
% Remaining of Initial ([1]; 120 min, 1 μM): <1.0%
Measured concentration of PEA (analyte) (in vitro; 0 min): 0 µM
Measured concentration of PEA (analyte) (in vitro; 10 min): 0.10 µM
Measured concentration of PEA (analyte) (in vitro; 20 min): 0.17 µM
Measured concentration of PEA (analyte) (in vitro; 30 min): 0.18 µM
Measured concentration of PEA (analyte) (in vitro; 60 min): 0.26 µM
% Remaining of Initial (in vitro; s9, 0 h): 100%
% Remaining of Initial (in vitro; s9, 10 min): 2.0%
% Remaining of Initial (in vitro; s9, 20 min): <1.0%
% Remaining of Initial (in vitro; s9, 0.5 h): <1.0%
% Remaining of Initial (in vitro; s9, 1 h): <1.0%
microsomal CLint at 1 μM (in vitro): > 69.3 µL/min/mg
half-life at 1 μM (in vitro): < 0.167 h
